Earlier results as cited in patent publication US9937141B2, “Carcinoma diagnosis and treatment, based on ODC1 genotype” (The Arizona Board of Regents on Behalf of the University of …, priority 2009, dated 2018).
Each block holds one compound with its values, some of them ahead of it.

Experiments:
tumor putrescine = details: DFMO infusion, without suppressing peripheral platelet counts
[1] = human, in vivo
prostoglandin E2 (PGE2) = details: 300 mg/day, one month

Structure (SMILES): NCCCC(N)(C(=O)O)C(F)F (racemic) [DFMO, 2-(difluoromethyl)-dl-ornithine]
decrease in tumor putrescine levels (tumor putrescine): 90%

Structure (SMILES): CC1=C(CC(=O)O)c2cc(F)ccc2/C1=C\c1ccc(S(C)(=O)=O)cc1 [Sulindac sulfone]
COX-inhibitory activity (COX): lacks COX-inhibitory activity

time to peak plasma levels (fasting patients): about 2 hours | drug absorbed after oral administration (oral): about 90% | Skin rash and pruritus, patients affected [1]: 5% | mild gastrointestinal effects, patients affected [1]: ~20%
Structure (SMILES): CC1=C(CC(=O)O)c2cc(F)ccc2/C1=C\c1ccc([S+](C)[O-])cc1 (stereo not shown) [Sulindac, (Z)-5-fluoro-2-methyl-1-((4 (methylsulfin-yl)phenyl)methylene) 1H-indene-3-acetic acid]

Structure (SMILES): CC(C)Cc1ccc(C(C)C(=O)O)cc1 (stereo not shown) [ibuprofen]
PGE2 levels in flat mucosa (prostoglandin E2 (PGE2)): significant decrease
